These results are taken from patent US4127720A, “Pyrimido[2,1-a]isoquinoline derivatives having antiallergy activity” (priority 1977, dated 1978).

The subject of one data set is release of mediators, e.g. histamine and SRS-A.
Test: not given
The conditions noted are these: administered to asthmatic patients prior to inhalation of specific antigens; cited from earlier work.
Regarding `O=C(O)c1cc(=O)c2c(OCC(O)COc3cccc4oc(C(=O)O)cc(=O)c34)cccc2o1` [DSCG, disodium cromoglycate, reference compound], the “inhibition of release of mediators, e.g. histamine and SRS-A” value is reported as “inhibits the release of mediators”.

Tested on in another data set: not given
Test: not given
The conditions noted are these: cited from earlier work.
With `O=C(O)c1cc(=O)c2c(OCC(O)COc3cccc4oc(C(=O)O)cc(=O)c34)cccc2o1` [DSCG, disodium cromoglycate, reference compound], the oral absorption result is “not orally absorbed”.

Another data set relates to reagin-mediated rat Passive Cutaneous Anaphylaxis (PCA). The data set is described as follows: Reagin-mediated rat Passive Cutaneous Anaphylaxis (PCA) screening test. Format: in vivo, Sprague-Dawley rats. The conditions noted are these: iv, 1-5 minutes prior to antigen challenge (DSCG: at the time of antigen challenge), read-out: Rat PCA Test ID50, i.v. (dose of compound that inhibits 50% of the response). On the procedure: The reagin-mediated rat Passive Cutaneous Anaphylaxis (PCA) screening test used to evaluate the present compounds is generally regarded as one of the best animal models for use in predicting the antiallergy activity of test compounds in man. Briefly, the method consists of passive sensitization of skin sites on the test animals with reaginic antibodies followed after 24 hours by administration of the test drug and antigen challenge. The allergic response is measured by use of Evans' blue dye and is evaluated by the spot diameter at the injection side. Details of the test are provided below.
A substituted ovalbumin antigen is used both as immunogen and challenging antigen. The antigen is prepared as follows: 500 mg. ovalbumin (EA) and 500 mg. K2 CO3 are dissolved in 25 ml. distilled H2 O and stirred at room temperature for 5 minutes. Five hundred (500) mg. dinitrobenzene sulfonic acid, Na^+ salt, (previously recrystallized from hot absolute ethanol) is then added slowly with continued stirring. The reaction mixture is then immediately placed in the dark and allowed to proceed for 2 hours with constant stirring. After 2 hours the mixture is placed in suitable dialysis tubing and dialyzed against 5 changes (4 liters each) of distilled H2 O at 5° C. After dialysis the product is lyophilized and stored at room temperature in a brown or amber container. The antigen obtained will appear as a light yellow, amorphous solid which is very soluble in water or saline. It is designated as DNP denatured ovalbumin (DNP-d EA).
Adult, male Sprague-Dawley rats are used as a source or reagin-rich antisera for the PCA model. Immunization is by a combination of DNP-d EA on Al(OH)3 gel and B. pertussis vaccine. Preparation of the DNP-d EA - gel immunogen is as follows: Dissolve the DNP-d EA in TBS so as to give a concentration of 10 mg./ml. Slowly add 1 ml. of this solution to 10 ml. Al(OH)3 gel (10 mg. solids/ml.) with constant stirring at room temperature. Stir the mixture an additional 30 minutes to insure a uniform adsorption of antigen on gel.
The resulting preparation is then used in combination with phase I B. pertussis vaccine to immunize male S/D rats as follows: For each rat administer 0.1 ml. DNP-d EA - gel suspension intramuscularly in each hind leg (200 μg DNP-d EA and 2 mg. gel total dose). Follow these injections by the intraperitoneal administration of 1.0 ml. B. pertussis vaccine (10-20 × 10^9 organisms). The use of light ether anesthesia during this procedure is recommended to insure proper intramuscular and intraperitoneal injections. Nine days following immunization (but no longer than 10) the animals are exsanguinated by cardiac puncture or abdominal aorta cannulation under ether or pentobarbital anesthesia. The collected whole blood is allowed to clot, the serum separated by centrifugation and the individual serum samples stored frozen until assayed for IgE content.
Individual serum samples should be screened for reaginic antibody concentration before being pooled with other sera, as not all rats respond to immunization procedures with reagin production. A 1:50 saline dilution of serum from each immunized rat is used for this purpose. Intradermal injections of 0.05 ml. of the diluted sera are made in the shaven backs of two small female recipient rats, 100-120 gms. Several serum samples can be tested simultaneously in recipient animals. After a 24 to 48 hour latent period antigen challenge is accomplished by intravenous administration to each rat of 1 mg. DNP-d EA in 0.5 ml. 0.5% Evans' blue dye in saline. Sera which show positive PCA reactions at the 1:50 dilution, as measured 20 to 30 minutes post-challenge are pooled, dispensed in small aliquots and stored at -70° C. or lower until used. Negative sera may be discarded.
The IgE titer of the antisera pool should then be determined. […]
On to `COc1ccc2c(ccn3c(=O)c(C(=O)O)cnc23)c1` [Example 18, 9-Methoxy-4-oxo-4H-pyrimido[2,1-a]isoquinoline-3-carboxylic Acid], for which the ED50 was approximately 1.5 mg/kg.

For `CCCc1cn2c(=O)c(C(=O)O)cnc2c2cc(OC)ccc12` [Example 17D, 10-methoxy-4-oxo-7-propyl-4H-pyrimido[2,1-a]isoquinoline-3-carboxylic Acid], the ED50 is approximately 0.071 mg/kg.

Take `O=C(O)c1cnc2c3ccccc3ccn2c1=O` [2,3, 4-Oxo-4H-pyrimido[2,1-a]isoquinoline-3-carboxylic Acid]: the ED50 is 0.33 mg/kg.

Regarding `COc1ccc2ccn3c(=O)c(C(=O)O)cnc3c2c1` [Example 16, 10-Methoxy-4-oxo-4H-pyrimido[2,1-a]isoquinoline-3-carboxylic acid], the ED50 is approximately 1 mg/kg.

As to `O=C(O)c1cc(=O)c2c(OCC(O)COc3cccc4oc(C(=O)O)cc(=O)c34)cccc2o1` [DSCG, disodium cromoglycate, reference compound], the ED50 was found to be 0.6 mg/kg.

For `C=CCc1cn2c(=O)c(C(=O)O)cnc2c2cc(OC)ccc12` [Example 17C, 7-allyl-10-methoxy-4-oxo-4H-pyrimido[2,1-a]isoquinoline-3-carboxylic Acid], the ED50 is approximately 0.53 mg/kg.

Staying with this data set, now noted: po, 10 minutes prior to antigen challenge, Table 1, read-out: Rat PCA Test ID50, p.o. (dose of compound that inhibits 50% of the response).
Consider `C=CCC1Cn2c(ncc(C(=O)OCC)c2=O)-c2cc(OC)ccc21` (racemic) [Example 10D, ethyl (±)-7-Allyl-6,7-dihydro-10-methoxy-4-oxo-4H-pyrimido[2,1-a]-3-carboxylate], for which the ED50 is approximately 0.31 mg/kg.

Take `CCOC(=O)c1cnc2n(c1=O)CCc1ccc(OC)cc1-2` [Example 10A, ethyl 6,7-Dihydro-10-methoxy-4-oxo-4H-pyrimido[2,1-a]isoquinoline-3-carboxylate]: the ED50 is approximately 0.81 mg/kg.

Take `COc1ccc2c(c1)-c1ncc(C(=O)O)c(=O)n1CC2` [Example 11B, 6,7-dihydro-10-methoxy-4-oxo-4H-pyrimido[2,1-a]isoquinoline-3-carboxylicAcid]: the ED50 was approximately 0.48 mg/kg.

For `CCOC(=O)c1cnc2n(c1=O)CC(CC(OC)OC)c1ccc(OC)cc1-2` (racemic) [Example 22 (CH2 CH(OMe)2), Ethyl (±)-6,7-Dihydro-7-(2,2-dimethoxyethyl)-10-methoxy-4-oxo-4H-pyrimido[2,1-a]isoquinoline-3-carboxylate], the ED50 was approximately 3.3 mg/kg.

With `O=C(O)c1cnc2n(c1=O)CCc1ccccc1-2` [Example 7, 6,7-Dihydro-4-oxo-4H-pyrimido[2,1-a]isoquinoline-3-carboxylic Acid], the ED50 stood at 7.9 mg/kg.

Consider `CCC1Cn2c(ncc(C(=O)O)c2=O)-c2ccccc21` (racemic) [Example 11C, (±)-7-ethyl-6,7-dihydro-4-oxo-4H-pyrimido[2,1-a]isoquinoline-3-carboxylic Acid], for which the ED50 turned out to be 0.048 mg/kg.

For the compound `CCOC(=O)c1cnc2n(c1=O)CCc1ccccc1-2` [Example 6, Ethyl 6,7-Dihydro-4-oxo-4H-pyrimido[2,1-a]isoquinoline-3-carboxylate], the ED50 came out at 2.3 mg/kg.

Take `COc1cc2c(cc1OC)-c1ncc(-c3nnn[nH]3)c(=O)n1CC2` [Example 24, 6,7-Dihydro-9,10-dimethoxy-3-(1H-tetrazol-5-yl)-4H-pyrimido[2,1-a]isoquinol-4-one]: the ED50 is approximately 0.03 mg/kg.

With `C=CCC1Cn2c(ncc(C(=O)O)c2=O)-c2cc(OC)ccc21` (racemic) [Example 11E, (±)-7-allyl-6,7-dihydro-10-methoxy-4-oxo-4H-pyrimido[2,1-a]isoquinoline-3-carboxylic Acid], the ED50 is approximately 0.077 mg/kg.

As for `CCOC(=O)c1cnc2n(c1=O)CC(CC)c1ccccc1-2` (racemic) [Example 10B, ethyl (±)-7-Ethyl-6,7-dihydro-4-oxo-4H-pyrimido[2,1-a]isoquinoline-3-carboxylate], the ED50 worked out at 0.13 mg/kg.

Still in this data set, the particulars now being: po, 10 minutes prior to antigen challenge, Table II and its footnote, read-out: Rat PCA Test ID50, p.o. (dose of compound that inhibits 50% of the response).
For `CCOC(=O)c1cnc2c3cc(OC)ccc3ccn2c1=O` [Example 13A, ethyl 10-Methoxy-4-oxo-4H-pyrimido[2,1-a]isoquinoline-3-carboxylate], the ED50 is approximately 0.9 mg/kg.

Turning to `CCOC(=O)c1cnc2c3ccc(OC)cc3ccn2c1=O` [Example 12, Ethyl 9-Methoxy-4-oxo-4H-pyrimido[2,1-a]isoquinoline-3-carboxylate], the ED50 is approximately 31 mg/kg.

For the compound `CCCc1cn2c(=O)c(C(=O)OCC)cnc2c2cc(OC)ccc12` [Example 15, Ethyl 10-Methoxy-4-oxo-7-propyl-4H-pyrimido[2,1-a]isoquinoline-3-carboxylate], the ED50 is approximately 16 mg/kg.

On to `CCOC(=O)c1cnc2c3cc(OC)c(OC)cc3ccn2c1=O` [Example 13C, ethyl 9,10-Dimethoxy-4-oxo-4H-pyrimido[2,1-a]isoquinoline-3-carboxylate], for which the ED50 is approximately 2.63 mg/kg.

For `O=C(O)c1cc(=O)c2c(OCC(O)COc3cccc4oc(C(=O)O)cc(=O)c34)cccc2o1` [DSCG, disodium cromoglycate, reference compound], the ED50 was more than 30 mg/kg.

For the compound `CCOC(=O)c1cnc2c3ccccc3ccn2c1=N` [Example 3A, Ethyl 4-Imino-4H-pyrimido[2,1-a]isoquinoline-3-carboxylate], the ED50 was approximately 0.19 mg/kg.

Still in this data set, the particulars now being: po, DSCG dosed 30 minutes prior to challenge, Table 1, read-out: Rat PCA Test ID50, p.o. (DSCG).
As to `O=C(O)c1cc(=O)c2c(OCC(O)COc3cccc4oc(C(=O)O)cc(=O)c34)cccc2o1` [DSCG, disodium cromoglycate, reference compound], the ED50 was more than 30 mg/kg.
